# Laboratory results reported in paper PMC10146846, “Studying the Mechanism of Interaction of Doxofylline with Human Lysozyme: A Biophysical and In Silico Approach” (Molecules, 2023).
# pKd: −log10 of the molar value.
# Columns and labels:
# [1] = target: T1, Human lysozyme (Homo sapiens, UniProt P61626); test: UV-vis absorption titration, double-reciprocal plot; assay type: binding
# T1 construct: gene LYZ
# T1 sequence (P61626 19-148): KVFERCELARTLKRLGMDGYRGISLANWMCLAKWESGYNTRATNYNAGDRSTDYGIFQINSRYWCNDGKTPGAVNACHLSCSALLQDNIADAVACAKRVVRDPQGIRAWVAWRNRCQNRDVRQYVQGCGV
# Excerpt: UV-vis absorption titration, double-reciprocal plot on Human lysozyme
# [2] = target: T1, Human lysozyme; test: intrinsic fluorescence quenching, excitation […] nm; assay type: binding; conditions: double-log; sodium phosphate pH 7.4, lysozyme 10 µM, doxofylline 0–60 µM
smiles,measurement,setting,value
Cn1c(=O)c2c(ncn2CC2OCCO2)n(C)c1=O [doxofylline],pKd,[1],5.29
same,Kb,[2],22900 M⁻¹
